The values below come from patent US20220249454A1, “INHIBITORS OF MONOCARBOXYLATE TRANSPORTERS FOR CANCER IMMUNOTHERAPY” (NIROGY THERAPEUTICS, INC., priority 2021, published 2022).

Experiment [1] relates to panel of solid and haemotological tumor cell lines (e.g., Hs578t, SiHa, MDA-MB-231). Nature of the experiment: MTS cell proliferation assay (cytotoxicity). Type of experiment: cell-based. The note with it: 72-96 hours, 10 mM lactate medium or RPMI 1640 medium, cell line not stated. How it is done: The anti-proliferation effect of MCT inhibition was investigated across a panel of solid and haemotological tumor cell lines. Cells were routinely cultured in their appropriate growth medium. On day 1, between 10,000-25,000 cells/well (e.g., Hs578t: 15,000 cells/well, SiHa: 10,000 cells/well, and MDA-MB-231: 25,000 cells/well) were plated into 96-well plates. 100 μL. of phosphate buffered saline solution was added to the external wells to prevent media evaporation. Plates were incubated in growth medium overnight at 37° C. in the presence of 5% CO2. On day 2, dry weight compound stocks were dissolved to a concentration of 10 mM in 100% DMSO. Compounds were further diluted in the assay medium; 10 mM lactate medium (without glucose, pyruvate, and glutamine) or RPMI 1640 medium (without pyruvate and glutamine) to generate a final dose range of 1 nM to 10 μM. Growth medium in the 96-well plate was replaced with the assay medium (10 mM lactate medium or RPMI medium or appropriate medium), and compounds were added to each well in the plate at different concentrations via serial dilution or pre-prepared solutions in assay medium. Plates were then incubated at 37° C. in the presence of 5% CO2 for a further 72-96 hours. On day 2-5, assay media was changed to 100 uL of DMEM/F12 and 20 μL of CellTiter 96 AQ MTS reagent was added to each well and the plate was returned to the incubator for 1-2 hours. MTS is bioreduced by NADPH or NADH produced by dehydrogenase enzymes in metabolically active cells into a coloured formazan product that is soluble in tissue culture medium. The amount of coloured formazan product is directly proportional to the number of living cells in culture. The absorbance of the plates was read on a Spectramax M5e plate reader using […] measurement wavelength. Dose response curves were plotted and IC50 values were calculated using GraphPad Prism. The IC50 value is equivalent to the concentration of compound that causes 50% inhibition of growth calculated from the compound treated signal to the vehicle treated signal.
Cytotoxicity of selected compounds is listed in Table 1, where IC50: A=<1 uM; B=1-10 uM; C=>10 uM; and NT=Not Tested.

For experiment [2], the system named is monocarboxylate transporters. Nature of the experiment: Lactate detection assay in cancer cell lines (intracellular lactate, Lactate-glo). The note with it: 24 hours incubation. It counts as cell-based. As to the method: Cells are maintained in their appropriate growth medium (RPMI medium with 2 g/L glucose, 2 mM L-glutamine supplemented with 10% FBS and P/S (growth medium). 15,000-25,000 cells were seeded into white 96-well plates in growth medium and incubated for 24 hours at 37° C. and 5% CO2. A duplicate plate was also seeded for normalization by an MTS assay. Dry weight compound stocks were dissolved to a concentration of 10 mM in 100% DMSO. Compounds were further diluted in the assay medium (Lactate media: 10 mM lactate, 5% FBS, and 1× P/S; Glucose media: RPMI, 5% FBS, and 1× P/S). Growth media was changed 24 hours later to assay medium containing 10 μM compound or vehicle (DMSO) control and incubated for 24 hours. Conditioned media was collected and the cells were washed in 200 μL ice-cold PBS. […] After a 5 minute incubation, 12.5 μL Neutralization solution (1M Trizma) is incubated for 1 minute. Intracellular lactate measurements were performed using a Lactate-glo kit (Promega). Briefly, the lactate detection reagent is mixed immediately before use and 50 μL is pipetted into each well and incubated at room temperature for 1 hour. Lactate is oxidized by enzymatic reactions to generate light. The luminescence is recorded using a Spectramax M5e plate reader and the concentration of lactate is determined using a known concentration of spiked lactate in PBS using GraphPad Prism.

Experiment [3] addresses T1, monocarboxylate transporter 1 (MCT1) (Homo sapiens, UniProt P53985).
T1 sequence (P53985 1-500): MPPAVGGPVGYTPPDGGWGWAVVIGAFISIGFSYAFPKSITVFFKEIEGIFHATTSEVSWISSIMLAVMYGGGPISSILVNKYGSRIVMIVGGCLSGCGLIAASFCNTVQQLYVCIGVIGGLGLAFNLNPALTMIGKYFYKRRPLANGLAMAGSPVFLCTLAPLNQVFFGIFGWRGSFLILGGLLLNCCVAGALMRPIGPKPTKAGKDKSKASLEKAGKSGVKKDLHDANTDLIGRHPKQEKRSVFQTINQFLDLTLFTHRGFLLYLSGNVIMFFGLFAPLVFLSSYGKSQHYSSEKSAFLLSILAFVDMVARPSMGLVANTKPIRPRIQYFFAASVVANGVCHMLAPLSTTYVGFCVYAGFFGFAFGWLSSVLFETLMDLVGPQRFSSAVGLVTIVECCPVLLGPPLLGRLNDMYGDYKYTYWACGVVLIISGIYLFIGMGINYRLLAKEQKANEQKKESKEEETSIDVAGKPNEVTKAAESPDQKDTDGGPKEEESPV
T1 sequence (P35613 140-385 partner limits assumed): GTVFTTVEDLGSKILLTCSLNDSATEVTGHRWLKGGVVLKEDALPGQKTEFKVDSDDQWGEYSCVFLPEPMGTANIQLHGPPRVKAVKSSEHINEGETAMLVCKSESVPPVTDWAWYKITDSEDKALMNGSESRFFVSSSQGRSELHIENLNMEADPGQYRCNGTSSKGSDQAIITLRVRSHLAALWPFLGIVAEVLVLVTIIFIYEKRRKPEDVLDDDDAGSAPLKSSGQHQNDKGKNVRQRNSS
The note with it: literature value; cited from earlier work.

In experiment [4] the target is T2, monocarboxylate transporter 4 (MCT4) (Homo sapiens, UniProt O15427).
T2 sequence (O15427 2-465 limits assumed): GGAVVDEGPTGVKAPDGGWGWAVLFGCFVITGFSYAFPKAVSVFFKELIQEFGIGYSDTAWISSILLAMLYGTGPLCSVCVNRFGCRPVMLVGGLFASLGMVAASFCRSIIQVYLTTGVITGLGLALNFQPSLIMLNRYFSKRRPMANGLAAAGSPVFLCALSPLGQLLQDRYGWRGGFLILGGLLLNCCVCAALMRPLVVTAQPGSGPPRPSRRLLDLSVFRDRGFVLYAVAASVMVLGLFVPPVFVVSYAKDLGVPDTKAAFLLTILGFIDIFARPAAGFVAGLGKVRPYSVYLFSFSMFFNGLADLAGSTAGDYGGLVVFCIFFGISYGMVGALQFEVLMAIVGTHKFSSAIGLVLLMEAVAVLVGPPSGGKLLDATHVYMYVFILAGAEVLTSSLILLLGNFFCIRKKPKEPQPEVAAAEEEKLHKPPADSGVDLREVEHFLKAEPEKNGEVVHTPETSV
T2 sequence (P35613 140-385 partner limits assumed): T1 sequence (P35613 140-385 partner limits assumed)
The note with it: literature value; cited from earlier work.

In the next experiment the test system is tumor cells. The following applies: literature, Cell Reports 2019; cited from earlier work.

As usually defined, the IC50 is the concentration at which inhibition is half-maximal.

In the case of `COc1cc(F)ccc1C(=O)N(C)c1cc2oc(=O)c(C(=O)O)cc2s1` [Compound 1.094, 2-(4-fluoro-2-methoxy-N-methylbenzamido)-5-oxo-5H-thieno[3,2-b]pyran-6-carboxylic acid], the IC50 in experiment [1] (Table 1 (Group 1)) and in experiment [2] was less than 1 µM each time.
Regarding `CN(Cc1ccc(F)cc1)c1cc2oc(=O)c(C(=O)O)cc2s1` [Compound 1.002, 2-((4-fluorobenzyl)(methyl)amino)-5-oxo-5H-thieno[3,2-b]pyran-6-carboxylic acid], the IC50 in experiment [1] (Table 1 (Group 1)) and in experiment [2] was less than 1 µM each time.
For `COc1cccc(C(=O)N(C)c2cc3oc(=O)c(C(=O)O)cc3s2)c1` [Compound 1.009, 2-(3-methoxy-N-methylbenzamido)-5-oxo-5H-thieno[3,2-b]pyran-6-carboxylic acid], the IC50 in experiment [1] (Table 1 (Group 1)) and in experiment [2] was less than 1 µM each time.
In experiment [1] (Table 2 (Group 2)), `Cc1ccc(NC(=O)N(C)c2cc3oc(=O)c(C(=O)O)cc3s2)cc1` [Compound 2.033, 2-(1-methyl-3-(p-tolyl)ureido)-5-oxo-5H-thieno[3,2-b]pyran-6-carboxylic acid] yielded an IC50 of less than 1 µM.
On the same count and under the same terms, the figure for `CN(C(=O)Nc1cc(C(F)(F)F)cc(C(F)(F)F)c1)c1cc2oc(=O)c(C(=O)O)cc2s1` [Compound 2.042, 2-(3-(3,5-bis(trifluoromethyl)phenyl)-1-methylureido)-5-oxo-5H-thieno[3,2-b]pyran-6-carboxylic acid] is less than 1 µM.
Same read-out and setting: the result for `CN(C(=O)Nc1cccc(Cl)c1)c1cc2oc(=O)c(C(=O)O)cc2s1` [Compound 2.034, 2-(3-(3-chlorophenyl)-1-methylureido)-5-oxo-5H-thieno[3,2-b]pyran-6-carboxylic acid] reads less than 1 µM.
For the molecule `CN(Cc1ccccc1)c1cc2oc(=O)c(C(=O)O)cc2s1` [Compound 1.001, 2-(benzyl(methyl)amino)-5-oxo-5H-thieno[3,2-b]pyran-6-carboxylic acid], the IC50 in experiment [1] (Table 1 (Group 1)) and in experiment [2] was less than 1 µM in each case.
In the case of `COc1ccccc1CN(C)c1cc2oc(=O)c(C(=O)O)cc2s1` [Compound 1.022, 2-[(2-Methoxy-benzyl)-methyl-amino]-5-oxo-5H-thieno[3,2-b]pyran-6-carboxylic acid], in experiment [1] (Table 1 (Group 1)), the IC50 is less than 1 µM.
In experiment [1] (Table 2 (Group 2)), `CN(C(=O)Nc1ccc(Oc2ccccc2Cl)cc1)c1cc2oc(=O)c(C(=O)O)cc2s1` [Compound 2.041, 2-(3-(4-(2-chlorophenoxy)phenyl)-1-methylureido)-5-oxo-5H-thieno[3,2-b]pyran-6-carboxylic acid] displayed an IC50 of less than 1 µM.
For the molecule `O=C(O)Cc1ccccc1Nc1c(Cl)cccc1Cl` [diclofenac], the results for the IC50 in experiment [3] and in experiment [4] were 1400 nM and 140 nM, respectively. In the experiment on tumor cells, the “concentration required to see efficacy in in vitro models” value is 150 to 200 µM.
For `CN(Cc1cccc(C(F)(F)F)c1)c1cc2oc(=O)c(C(=O)O)cc2s1` [Compound 1.006, 2-(methyl(3-(trifluoromethyl)benzyl)amino)-5-oxo-5H-thieno[3,2-b]pyran-6-carboxylic acid], the IC50 in experiment [1] (Table 1 (Group 1)) was less than 1 µM.
For `CN(CC1CCCCC1)c1cc2oc(=O)c(C(=O)O)cc2s1` [Compound 1.005, 2-((cyclohexylmethyl)(methyl)amino)-5-oxo-5H-thieno[3,2-b]pyran-6-carboxylic acid], the IC50 in experiment [1] (Table 1 (Group 1)) is less than 1 µM.
In experiment [1] (Table 2 (Group 2)), `COc1cc(NC(=O)N(C)c2cc3oc(=O)c(C(=O)O)cc3s2)cc(OC)c1` [Compound 2.022, 2-(3-(3,5-dimethoxyphenyl)-1-methylureido)-5-oxo-5H-thieno[3,2-b]pyran-6-carboxylic acid] came in with an IC50 of less than 1 µM.
On to `CN(C(=O)c1ccc(C(F)(F)F)cc1)c1cc2oc(=O)c(C(=O)O)cc2s1` [Compound 1.020, 2-[Methyl-(4-trifluoromethyl-benzoyl)-amino]-5-oxo-5H-thieno[3,2-b]pyran-6-carboxylic acid], for which, in experiment [1] (Table 1 (Group 1)), the IC50 was less than 1 µM.
Take `COc1ccccc1C(=O)N(C)c1cc2oc(=O)c(C(=O)O)cc2s1` [Compound 1.017, 2-[(2-Methoxy-benzoyl)-methyl-amino]-5-oxo-5H-thieno[3,2-b]pyran-6-carboxylic acid]: the IC50 in experiment [1] (Table 1 (Group 1)) and in experiment [2] was less than 1 µM in each case.
Molecule `CN(c1cc2oc(=O)c(C(=O)O)cc2s1)S(=O)(=O)c1ccc(C(F)(F)F)cc1` [Compound 1.027, 2-[Methyl-(4-trifluoromethyl-benzenesulfonyl)-amino]-5-oxo-5H-thieno[3,2-b]pyran-6-carboxylic acid] came in with a half-maximal inhibitory concentration (IC50) in experiment [1] (Table 1 (Group 1)) of less than 1 µM.
The same measure, in the same setting: the result for `COc1ccc(S(=O)(=O)N(C)c2cc3oc(=O)c(C(=O)O)cc3s2)cc1` [Compound 1.025, 2-[(4-Methoxy-benzenesulfonyl)-methyl-amino]-5-oxo-5H-thieno[3,2-b]pyran-6-carboxylic acid] reads less than 1 µM.
As for `CN(C(=O)c1cccc(-c2ccccc2)c1)c1cc2oc(=O)c(C(=O)O)cc2s1` [Compound 2.030, 2-(N-methyl-[1,1′-biphenyl]-3-carboxamido)-5-oxo-5H-thieno[3,2-b]pyran-6-carboxylic acid], the IC50 in experiment [1] (Table 2 (Group 2)) is less than 1 µM.
`COc1ccc(CN(C)c2cc3oc(=O)c(C(=O)O)cc3s2)cc1` [Compound 1.021, 2-[(4-Methoxy-benzyl)-methyl-amino]-5-oxo-5H-thieno[3,2-b]pyran-6-carboxylic acid] returned an IC50 in experiment [1] (Table 1 (Group 1)) of less than 1 µM.
On to `CN(C(=O)Nc1cccc(F)c1)c1cc2oc(=O)c(C(=O)O)cc2s1` [Compound 2.025, 2-(3-(3-fluorophenyl)-1-methylureido)-5-oxo-5H-thieno[3,2-b]pyran-6-carboxylic acid], for which the IC50 in experiment [1] (Table 2 (Group 2)) is less than 1 µM.
